Here are results for 23 substances from US20230256051A1, “MODIFIED KISSPEPTIN RECEPTOR AGONISTS FOR FATTY LIVER DISEASE” (priority 2020, published 2023).

No end group written: not given here.

By IC50 is commonly meant the concentration that inhibits the measured activity by half. A word on the EC50: it is the concentration that produces a half-maximal response.

The target of assay [1] is T1, KISS1R (Homo sapiens, UniProt Q969F8). Set-up: expressed in transfected cells; host or cells: CHO (CHO-KISS1R), membrane preparations. Conditions: CHO-KISS1R membrane preparations; means +/- SE; n = 3-5; read-out: IC50 against [125I]KP-54 binding to KISS1R; cited from earlier work.
Target sequence in this assay (Q969F8 whole entry, species assumed): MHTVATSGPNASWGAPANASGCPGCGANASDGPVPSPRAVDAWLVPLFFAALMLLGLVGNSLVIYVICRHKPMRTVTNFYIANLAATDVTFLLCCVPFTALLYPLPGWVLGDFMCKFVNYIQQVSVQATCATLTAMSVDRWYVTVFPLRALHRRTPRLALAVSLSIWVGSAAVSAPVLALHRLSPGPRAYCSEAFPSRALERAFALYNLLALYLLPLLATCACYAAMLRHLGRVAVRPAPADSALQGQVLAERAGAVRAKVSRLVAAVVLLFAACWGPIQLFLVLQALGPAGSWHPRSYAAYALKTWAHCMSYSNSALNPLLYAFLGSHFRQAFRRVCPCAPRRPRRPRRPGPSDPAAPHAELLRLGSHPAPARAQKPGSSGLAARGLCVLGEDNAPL
In assay [2] the target is T1, KISS1R. Also on record: expressed in transfected cells; host or cells: CHO cells. Conditions: [Ca2+] increasing activity, CHO cells expressing human KISS1R; (95% confidence interval); read-out: Agonist activity EC50; cited from earlier work.
Target sequence in this assay (Q969F8 whole entry): as the sequence (Q969F8 whole entry, species assumed) above
Assay [3] relates to primary mouse hepatocytes. As to the kind of experiment: FFA-loaded isolated primary mouse hepatocytes treated with KP-10 or TAK. Particulars: primary mouse hepatocytes.
Protocol: (n=4) * p < 0.05; One-way ANOVA followed by Dunnett’s post-hoc test.
Primary hepatocytes from mice were isolated according to known methods. Mice (wild-type, C57BL6) or LKO and littermate controls were anesthetized using a ketamine/xylazine mixture (Henry Schein™). The liver was cannulated via the hepatic portal vein and first perfused with 37° C. Kreb’s Ringer solution containing EGTA for 10 minutes. After the first wash, a second Kreb’s Ringer solution containing CaCl2 and LIBERASE (Roche™) was used until the liver was thoroughly perfused. Hepatocytes were filtered through a gauze mesh and resuspended in William’s Media E (Sigma™) with 10 % FBS (Sigma™), 200 nM dexamethasone (Sigma™), 5 mM pen/strep (Fisher™), 2 mM L-glutamine (Fisher™). Cells were plated at a density of 3 × 10^5 on 6-well collagen-coated plates (Sigma™). Hepatocytes were left to recover overnight and then were serum starved for 3 hours prior to experiments. For free fatty acid (FFA) loading, 150 µM oleic and 150 µM palmitic acid was conjugated with 2% BSA (0.3 mM).
The test system of assay [4] is healthy men. Conditions: cited from earlier work.

With YNANSFGLRF [ANA3], the IC50 in assay [1] was 2.7 ± 0.7 nM.
Take YAWNSFGLRF [ANA2]: in assay [1], the IC50 is 145 ± 138 nM.
Take “YNWNSFGLRY [Compound 2**, Decourt et al., 2016 numbering]”: in assay [2], the EC50 is 0.057 nM.
For the substance YNWNSFGARF [ANA8], the IC50 in assay [1] is 77.4 ± 10 nM.
As to YNWASFGLRF [ANA4], in assay [1], the IC50 is 43.5 ± 15.5 nM.
In the case of YNWDSFGLRF [ANA13], the IC50 in assay [1] was 140 ± 60.6 nM.
Turning to “Palm-γ-DYNWNSFG′P[Tz]LRY-NH2 [Compound 5**, Decourt et al., 2016 numbering]”, in assay [2], the EC50 is 0.13 nM.
Turning to YNWNSFGIRF [ANA 16], the IC50 in assay [1] was 39.9 ± 8.1 nM.
As for YNWNSAGLRF [ANA6], the concentration for half-maximal inhibition (IC50) in assay [1] is 110 ± 89.8 nM.
As to YNWNSYGLRF [ANA15], the IC50 in assay [1] is 87.5 ± 30.7 nM.
Take “Palm-γ-DYNWNSFGT[Tz]LR[Me]Y-NH2 [Compound 6**, Decourt et al., 2016 numbering]”: the half-maximal effective concentration (EC50) in assay [2] was 0.17 nM.
In the case of FNWNSFGLRF [ANA11], the IC50 in assay [1] is 3.5 ± 2.1 nM.
As for “Ac-YNWNSFGT[Tz]LR[Me]Y-NH2 [Compound 7**, Decourt et al., 2016 numbering]”, in assay [2], the EC50 is 1.5 nM.
As to YNWNSFGLRH [ANA18], the IC50 in assay [1] is 378 ± 266 nM.
With ANWNSFGLRF [ANA1], in assay [1], the IC50 was 23.2 ± 14.3 nM.
Regarding YNWNSFGLKF [ANA17], the IC50 in assay [1] was 9.8 ± 2.6 nM.
YNWNSFALRF [ANA7]: in assay [1], the IC50 was 4.6 ± 1.5 nM.
With “Ac-YNK(Palm-γ-D)NSFGT[Tz]LRY-NH2 [Compound 4**, Decourt et al., 2016 numbering]”, the EC50 in assay [2] is 2.1 nM.
For YNWNTFGLRF [ANA14], the IC50 in assay [1] was 2.3 ± 1.6 nM.
In the case of YDWNSFGLRF [ANA12], the IC50 in assay [1] is 29.1 ± 13.5 nM.
For YNWNSFGLRF [Kisspeptin-10], the “expression of de novo lipogenic genes” value in assay [3] (treatment for 8 hours, RT-qPCR) is given as “reduced”. The “phosphorylation of AMPK and its downstream target ACC” value in assay [3] (western blot, n=4) is on record as “stimulated phosphorylation”.
Regarding “Gly-Thr-Ser-Leu-Ser-Pro-Pro-Pro-Glu-Ser-Ser-Gly-Ser-Arg-Gln-Gln-Pro-Gly-Leu-Ser-Ala-Pro-His-Ser-Arg-Gln-Ile-Pro-Ala-Pro-Gln-Gly-Ala-Val-Leu-Val-Gln-Arg-Glu-Lys-Asp-Leu-Pro-Asn-Tyr-Asn-Trp-Asn-Ser-Phe-Gly-Leu-Arg-Phe-NH2 (GTSLSPPPESSGSRQQPGLSAPHSRQIPAPQGAVLVQREKDLPNYNWNSFGLRF-NH2) [Kisspeptin-54]”, in assay [4], the “food intake or appetite” value is recorded as “without altering” and the insulin secretion result is “enhance”.
Regarding YNWNAFGLRF [ANA5], the IC50 in assay [1] is 0.8 ± 0.4 nM.
